From patent publication US10143711B2, “Pathways to generate hair cells” (Massachusetts Eye & Ear Infirmary, priority 2008, dated 2018) come the findings set out here.

One data set concerns Atoh1 and β-catenin. In words: β-catenin and Atoh1 expression in bone marrow derived MSCs on Notch inhibition and β-catenin activation. It is filed as cell-based, human. An excerpt: Notch signaling was inhibited using a γ-secretase inhibitor (DAPT) and β-catenin was activated using a GSK3β inhibitor (GSKi). […] Altered Notch activity was confirmed using CBF-1 luciferase reporter.
Mesenchymal stem cells (MSCs) were isolated from human bone marrow using the methods described by Jeon et al. (Mol. Cell. Neurosci., 34(1):59-68, (2007)). Cells were expanded once before use and cultured in MEM-α cell culture media (Sigma-Aldrich) supplemented with 9% horse serum, 9% fetal calf serum, and penicillin (100 U/mL) and streptomycin (100 μg/mL).

Another data set concerns Atoh1. In words: Gene silencing with siRNA in neural progenitor cells and Neuro2a (RT-PCR). The data set is classed as cell-based, mouse. Particulars: 200 nM siRNA; for decrease of Atoh1 expression: harvested after 48 hours, neural progenitor cells and Neuro2a. As for the experimental part:
The data shown in Examples 1-3 was corroborated using gene silencing. Briefly, siRNA were designed to silence Atoh1 (NM 007500.4, NM 005172.1) and β-catenin (NM_007614.2 and NM_001904.3), as shown below: Atoh1:
200 nM of each siRNA were transfected using the GeneSilencer™ transfection reagent at 5 μL/mL. Cells were incubated in the presence of the transfection mix for 16 hours and were harvested following a total of 48 hours. Non-targetting siRNA was used as control. Gene silencing was confirmed using RT-PCR. Cells were also transfected with Atoh1, β-catenin, or GFP using the methods described above.

In the case of “β-catenin siRNA: siRNA designed to silence β-catenin, SEQ ID NO:17 (GCGCUUGGCUGAACCAUCAUUGUGAAAUUCUUGGCUAUUAUU; listed as RNA, chemistry not given here)”, in the data set with Atoh1 and β-catenin (MSCs with γ-secretase treatment and siRNA suppression of β-catenin), the Atoh1 expression result is “reduced”. Further, the β-catenin expression levels result in the data set on Atoh1 (all cell types tested) is “suppressed”. The “decrease of Atoh1 expression” value in the data set on Atoh1 was “about 40%”.
As to “Atoh1 siRNA: siRNA designed to silence Atoh1, SEQ ID NO:16 (GCAACGUUAUCCCGUCCUUUAACAGCGAUGAUGGCACA; listed as RNA, chemistry not given here)”, the “decrease of Atoh1 expression” value in the data set with Atoh1 is “about 45%”.
As for `C[C@H](NC(=O)Cc1cc(F)cc(F)c1)C(=O)N[C@H](C(=O)OC(C)(C)C)c1ccccc1` [γ-secretase inhibitor, N—[N-(3,5-difluorophenacetyl)-L-alanyl]-(S)-phenylglycine t-butyl ester], the β-catenin expression entry with Atoh1 and β-catenin (human bone marrow MSCs, DAPT used at 10 μM and 50 μM) was “increased”.
